Results as given in patent US11667602B2, “Compounds and their use” (AstraZeneca AB, priority 2020, dated 2023).
Converted amounts (≈) assume the structure as drawn. Where two headings read alike, the source gives them in different places.

What was measured:
[1] = Human Hepatocyte Stability (Test D); format: in vitro ADME; settings: geometric mean if run multiple times; for hepatocyte CLint at 1 µM: human, cryopreserved pooled human hepatocytes (LiverPool 10-Donor)
Summary of the method: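 Intrinsic clearance (μL/min/10^6 cells), derived as kV/N from the log-linear loss of parent compound. Compound incubated at 37 °C with cryopreserved pooled human hepatocytes, 0.25×10^6 cells in 0.25 mL L-15; dosing solution 100 μM in acetonitrile. Singlicate incubations, cassette LC-MS; repeats reported as geometric mean.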

[2] = Human Plasma Protein Binding (Test B); format: in vitro ADME; settings: fraction unbound (fu)
Summary of the method: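 Values given as % free (fu) in human plasma, using the method of Wernevik et al. (2020). For compounds tested more than once, the arithmetic mean is given.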

[3] = Human Liver Microsomal Stability (Test C); format: in vitro ADME; settings: for microsomal CLint: human, liver microsomes
Summary of the method: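 CLint (μl/min/mg protein) derived from compound depletion in human liver microsomes following a published standardized early-DMPK protocol; replicate determinations given as arithmetic mean.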

human RXFP1 = target: T1, human RXFP1 (Homo sapiens, UniProt Q9HBX9); test: RXFP1 Hu cAMP (Test A); format: cell-based; set-up: expressed in transfected cells; host or cells: Jump-In T-REx CHO-K1 cells (ThermoFisher), induced with 10 ng/ml doxycycline for 24 h
T1 sequence (Q9HBX9 1-757): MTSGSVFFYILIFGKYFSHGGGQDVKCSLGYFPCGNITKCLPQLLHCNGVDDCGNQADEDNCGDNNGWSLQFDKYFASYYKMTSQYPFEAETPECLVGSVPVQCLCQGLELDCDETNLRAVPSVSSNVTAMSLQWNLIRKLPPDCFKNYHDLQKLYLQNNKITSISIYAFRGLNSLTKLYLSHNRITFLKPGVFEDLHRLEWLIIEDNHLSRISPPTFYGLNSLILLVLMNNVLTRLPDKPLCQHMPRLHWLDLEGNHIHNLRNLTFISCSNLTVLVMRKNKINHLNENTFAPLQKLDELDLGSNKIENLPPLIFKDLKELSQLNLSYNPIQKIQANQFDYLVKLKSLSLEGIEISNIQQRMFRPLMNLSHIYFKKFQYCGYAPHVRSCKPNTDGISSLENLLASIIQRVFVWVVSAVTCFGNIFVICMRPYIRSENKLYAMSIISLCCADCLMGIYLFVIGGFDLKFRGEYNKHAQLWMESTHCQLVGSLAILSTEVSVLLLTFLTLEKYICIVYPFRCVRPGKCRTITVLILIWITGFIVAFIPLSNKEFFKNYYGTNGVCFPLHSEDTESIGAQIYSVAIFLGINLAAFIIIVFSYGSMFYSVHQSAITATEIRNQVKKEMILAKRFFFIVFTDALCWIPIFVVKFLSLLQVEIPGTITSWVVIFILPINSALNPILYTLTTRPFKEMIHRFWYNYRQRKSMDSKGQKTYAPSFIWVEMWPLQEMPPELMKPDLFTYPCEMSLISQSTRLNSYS
Summary of the method: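 Competitive HTRF cAMP readout (2 h, room temperature) in CHO-K1 cells stably expressing human RXFP1, induced with 10 ng/ml doxycycline for 24 h; IBMX 0.5 mM final.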

[4] = Rat Hepatocyte Stability (Test E); format: in vitro ADME; settings: geometric mean if run multiple times; for hepatocyte CLint: rat, hepatocytes
Summary of the method: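 Intrinsic clearance in rat hepatocytes, expressed as μl/min/10^6 cells, following the literature integrated DMPK panel method. Repeat determinations combined as geometric mean.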

Solubility (Test F) = format: physicochemical; settings: arithmetic mean if run multiple times
Description: The assay was conducted according to the Solubility Assay described in pages 164-167 of Wernevik, J. et al., “A Fully Integrated Assay Panel for Early Drug Metabolism and Pharmacokinetics Profiling”, Assay and Drug Development Technologies, 2020, 18(4), 157-179. Data are reported in Table 36 as solubility ([…]. Where the assay was run multiple times for the same compound, the arithmetic mean is reported.

[5] = RXFP1 Hu cAMP, read-out: Test A EC50

| hepatocyte CLint at 1 µM [1] [µL/min/1e6 cells] | Test B Human Plasma Protein Binding (% free) [2] [% free] | microsomal CLint [3] [µL/min/mg] | Test A Sinf (human RXFP1; RXFP1 Hu cAMP) [%] | EC50 (human RXFP1; [5]) [µM] | hepatocyte CLint [4] [µL/min/1e6 cells] | solubility (Solubility (Test F)) [µM] | SMILES | EC50 (human RXFP1; Test A EC50, RXFP1 Hu cAMP) [µM] | Test D Human Hepatocyte Stability Clint ([1]; human hepatocytes) [μL/min/10^6 cells] | Test C Human Liver Microsomal Stability Clint ([3]; human liver microsomes) [µL/min/mg] | Test E Rat Hepatocyte Stability Clint ([4]; rat hepatocytes) [μL/min/10^6 cells] |
| --- | --- | --- | --- | --- | --- | --- | --- | --- | --- | --- | --- |
| 5.3 | 4 | < 4.5 | 106 | 0.0085 | 7.2 | 910 (≈ 540 µg/mL) | COc1cc(C#N)c(O[C@H]2CC[C@@](C)(C(=O)O)CC2)cc1C(=O)N[C@@H]1[C@@H]2CC[C@@H](C2)[C@@H]1C(=O)NCC(C)(C)C(F)(F)F [Example 502, (1S,4s)-4-(2-Cyano-4-methoxy-5-(((1R,2R,3S,4S)-3-((3,3,3-trifluoro-2,2-dimethylpropyl)carbamoyl)bicyclo[2.2.1]heptan-2-yl)carbamoyl)phenoxy)-1-methylcyclohexane-1-carboxylic acid] |  |  |  |  |
| < 1 | 16 | 8.3 | 107 | 0.074 | 17 | 920 (≈ 493 µg/mL) | COc1cc(C#N)c(O[C@H]2CC[C@@](C)(C(=O)O)CC2)cc1C(=O)N[C@@H]1[C@H]2CC[C@H](C2)[C@@H]1C(=O)NC12CC(C1)C2 [Example 141, (1S,4s)-4-(5-(((1S,2R,3S,4R)-3-(Bicyclo[1.1.1]pentan-1-ylcarbamoyl)-bicyclo[2.2.1]heptan-2-yl)carbamoyl)-2-cyano-4-methoxyphenoxy)-1-methylcyclohexane-1-carboxylic acid] |  |  |  |  |
| 6.9 | 0.68 | < 3 | 130 |  | 24 | 1.6 (≈ 0.843 µg/mL) | COc1cc(F)c(O[C@H]2CC[C@@](C)(C(=O)O)CC2)cc1C(=O)Nc1ccccc1C(=O)NCC1(C)CCC1 [Example 143, (1s,4s)-4-(2-Fluoro-4-methoxy-5-((2-(((1-methylcyclobutyl)methyl)-carbamoyl)phenyl)carbamoyl)phenoxy)-1-methylcyclohexane-1-carboxylic acid] |  |  |  |  |
| 5 | 2.1 | 22 | 95 | 0.13 | 13 | 990 (≈ 654 µg/mL) | COc1cc(F)c(O[C@H]2CC[C@@](C)(C(=O)O)CC2)cc1C(=O)NC1CCOCC1C(=O)Nc1cccc(S(=O)(=O)C(F)(F)F)c1 (single isomer, unassigned) [Example 518, (1R,4s)-4-(2-Fluoro-4-methoxy-5-(((3S*,4S*)-3-((3-((trifluoromethyl)sulfonyl)phenyl)carbamoyl)tetrahydro-2H-pyran-4-yl)carbamoyl)phenoxy)-1-methylcyclohexane-1-carboxylic acid] |  |  |  |  |
| 13 | 5 | 45 | 104 | 0.64 | 15 | 980 (≈ 651 µg/mL) | COc1cc(F)c(-c2ccc(CCC(=O)O)nn2)cc1C(=O)N[C@@H]1[C@H]2CC[C@H](C2)[C@@H]1C(=O)Nc1cccc(S(=O)(=O)C(F)(F)F)c1 [Example 245] |  |  |  |  |
| 7.6 | 1.6 | 23 | 98 | 7.2 | 190 | 940 (≈ 493 µg/mL) | COc1cc(F)c(O[C@H]2CC[C@@H](C(=O)O)CC2)cc1C(=O)N[C@@H]1[C@H]2CC[C@H](C2)[C@@H]1C(=O)Nc1ccccc1 [Example 201, (1S,4s)-4-(2-Fluoro-4-methoxy-5-(((1S,2R,3S,4R)-3-(phenylcarbamoyl)bicyclo[2.2.1]heptan-2-yl)carbamoyl)phenoxy)cyclohexane-1-carboxylic acid] |  |  |  |  |
| 22 | 6.8 | 35 | 107 | 0.0076 | 28 | 950 (≈ 559 µg/mL) | CC(C)Oc1cc(F)c(O[C@H]2CC[C@@](CO)(C(=O)O)CC2)cc1C(=O)N[C@@H]1[C@H]2CC[C@H](C2)[C@@H]1C(=O)NCC1(C)CCC1 [Example 486, (1S,4s)-4-(2-Fluoro-4-isopropoxy-5-(((1S,2R,3S,4R)-3-(((1-methylcyclobutyl)methyl)carbamoyl)bicyclo[2.2.1]heptan-2-yl)carbamoyl)phenoxy)-1-(hydroxymethyl)cyclohexane-1-carboxylic acid] |  |  |  |  |
| 12 | 2.4 | 120 | 101 | 0.05 | 13 | 810 (≈ 453 µg/mL) | CCC1(CNC(=O)[C@H]2[C@@H]3CC[C@@H](C3)[C@H]2NC(=O)c2cc(O[C@H]3CC[C@@](C)(C(=O)O)CC3)c(F)cc2OC)CCC1 [Example 617] |  |  |  |  |
| 8 | 4.1 | 50 | 106 |  | 19 | 780 (≈ 436 µg/mL) | CCOc1cc(F)c(O[C@H]2CC[C@@](C)(C(=O)O)CC2)cc1C(=O)N[C@@H]1[C@H]2CC[C@H](C2)[C@@H]1C(=O)NCC1(C)CCC1 [Example 385] |  |  |  |  |
| 13 | 6.7 | 110 | 105 | 0.11 | 14 | 10 (≈ 6.78 µg/mL) | COc1cc(F)c(O[C@H]2CC[C@@](C)(C(=O)O)CC2)cc1C(=O)N[C@@H]1[C@H]2CC[C@H](C2)[C@@H]1C(=O)N[C@@H]1CCCN(S(=O)(=O)C(F)(F)F)C1 [Example 604] |  |  |  |  |
| 28 | 0.51 | 200 | 128 | 0.1 | 96 | 13 (≈ 7.9 µg/mL) | COc1cc(F)c(O[C@H]2CC[C@@H](C(N)=O)CC2)cc1C(=O)N[C@H]1[C@@H](C(=O)Nc2ccc(F)c(C(F)(F)F)c2)[C@@H]2C=C[C@H]1C2 [Example 499, (1S,2S,3R,4R)-3-(5-(((1s,4S)-4-Carbamoylcyclohexyl)oxy)-4-fluoro-2-methoxybenzamido)-N-(4-fluoro-3-(trifluoromethyl)phenyl)bicyclo[2.2.1]hept-5-ene-2-carboxamide] |  |  |  |  |

| SMILES | hepatocyte CLint at 1 µM [1] [µL/min/1e6 cells] | Test B Human Plasma Protein Binding (% free) [2] [% free] | microsomal CLint [3] [µL/min/mg] | Test A Sinf (human RXFP1; RXFP1 Hu cAMP) [%] | EC50 (human RXFP1; [5]) [µM] | hepatocyte CLint [4] [µL/min/1e6 cells] | solubility (Solubility (Test F)) [µM] | EC50 (human RXFP1; Test A EC50, RXFP1 Hu cAMP) [µM] | Test D Human Hepatocyte Stability Clint ([1]; human hepatocytes) [μL/min/10^6 cells] | Test C Human Liver Microsomal Stability Clint ([3]; human liver microsomes) [µL/min/mg] | Test E Rat Hepatocyte Stability Clint ([4]; rat hepatocytes) [μL/min/10^6 cells] |
| --- | --- | --- | --- | --- | --- | --- | --- | --- | --- | --- | --- |
| COc1ccc(O[C@H]2CC[C@@](C)(C(=O)O)CC2)cc1C(=O)N[C@@H]1[C@H]2CC[C@H](C2)[C@@H]1C(=O)NCC1(C)CCC1 [Example 381] | 6.1 | 3.8 | 36 |  |  | 21 | 1000 (≈ 527 µg/mL) | 0.11 |  |  |  |
| COc1cc(F)c(O[C@H]2CC[C@@](C)(C(N)=O)CC2)cc1C(=O)N[C@@H]1[C@H]2CC[C@H](C2)[C@@H]1C(=O)NCC1(F)CCOCC1 [Example 147, (1R,2S,3R,4S)-3-(5-(((1s,4S)-4-Carbamoyl-4-methylcyclohexyl)oxy)-4-fluoro-2-methoxybenzamido)-N-((4-fluorotetrahydro-2H-pyran-4-yl)methyl)bicyclo-[2.2.1]heptane-2-carboxamide] |  | 36 |  | 111 | > 4.2 |  | 1000 (≈ 578 µg/mL) |  | 6.1 | 88 | 67 |
